#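 Each compound was tested at five concentrations against cells in 96-well plates for 48 hours. The concentration for 50% growth inhibition is given as GI50. Definition used: TGI = concentration required for complete inhibition of growth.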
# Assays:
# Test in all cases: DTP human tumour cell line panel, 48 h
# UO-31 renal = system: UO-31 renal
# NCI-H522 lung = system: NCI-H522 lung
# SF-268 CNS = system: SF-268 CNS
# OVCAR-3 ovarian = system: OVCAR-3 ovarian
# T-47D breast = system: T-47D breast
# RXF 393 renal = system: RXF 393 renal
# HCT-116 colon = system: HCT-116 colon
# U251 CNS = system: U251 CNS
# SK-MEL-2 melanoma = system: SK-MEL-2 melanoma
# MDA-MB-231 breast = system: MDA-MB-231 breast
# HCT-15 colon = system: HCT-15 colon
# DU-145 prostate = system: DU-145 prostate
# NCI/ADR-RES ovarian = system: NCI/ADR-RES ovarian
# SF-539 CNS = system: SF-539 CNS
# SN12C renal = system: SN12C renal
# SK-OV-3 ovarian = system: SK-OV-3 ovarian
# SNB-75 CNS = system: SNB-75 CNS
# UACC-62 melanoma = system: UACC-62 melanoma
# NCI-H226 lung = system: NCI-H226 lung
# TK-10 renal = system: TK-10 renal
# HOP-62 NSCLC = system: HOP-62 NSCLC
# EKVX NSCLC = system: EKVX NSCLC
# IGROV1 ovarian = system: IGROV1 ovarian
# SF-295 CNS = system: SF-295 CNS
# ACHN renal = system: ACHN renal
# MDA-MB-435 = system: MDA-MB-435
# HS 578T breast = system: HS 578T breast
# SW-620 colon = system: SW-620 colon
# SK-MEL-5 melanoma = system: SK-MEL-5 melanoma
# A498 renal = system: A498 renal
# MCF7 breast = system: MCF7 breast
# RPMI-8226 leukemia = system: RPMI-8226 leukemia
# COLO 205 colon = system: COLO 205 colon
# OVCAR-8 ovarian = system: OVCAR-8 ovarian
# SK-MEL-28 melanoma = system: SK-MEL-28 melanoma
# A549 NSCLC = system: A549 NSCLC
# CCRF-CEM leukemia = system: CCRF-CEM leukemia
# UACC-257 melanoma = system: UACC-257 melanoma
# 786-0 renal = system: 786-0 renal
# K-562 leukemia = system: K-562 leukemia
# SR leukemia = system: SR leukemia
# KM12 colon = system: KM12 colon
# MALME-3M melanoma = system: MALME-3M melanoma
# OVCAR-4 ovarian = system: OVCAR-4 ovarian
# NCI-H460 lung = system: NCI-H460 lung
# NCI-H23 lung = system: NCI-H23 lung
# OVCAR-5 ovarian = system: OVCAR-5 ovarian
# HT29 colon = system: HT29 colon
# HL-60(TB) leukemia = system: HL-60(TB) leukemia
# M14 melanoma = system: M14 melanoma
# HCC-2998 colon = system: HCC-2998 colon
# SNB-19 CNS = system: SNB-19 CNS
# MOLT-4 leukemia = system: MOLT-4 leukemia
# LOX IMVI melanoma = system: LOX IMVI melanoma
# CAKI-1 renal = system: CAKI-1 renal
# PC-3 prostate = system: PC-3 prostate
# HOP-92 NSCLC = system: HOP-92 NSCLC
compound,measurement,setting,value
O=C(O)c1cc(-c2ccc(-c3ccc(-c4cc(C(=O)O)c5cc(Cl)ccc5n4)cc3)cc2)nc2ccc(Cl)cc12,GI50,UO-31 renal,32.5 µM
same,GI50,NCI-H522 lung,79.8 µM
same,GI50,SF-268 CNS,94.7 µM
same,GI50,OVCAR-3 ovarian,48.8 µM
same,GI50,T-47D breast,50.9 µM
same,GI50,RXF 393 renal,77.9 µM
same,GI50,HCT-116 colon,52.4 µM
same,GI50,U251 CNS,40.9 µM
same,GI50,SK-MEL-2 melanoma,56 µM
same,GI50,MDA-MB-231 breast,46.5 µM
same,GI50,HCT-15 colon,67.2 µM
BrCCCc1n(Cc2ccc3ccccc3c2)c2ccccc2[n+]1Cc1ccc2ccccc2c1,GI50,DU-145 prostate,1.58 µM
same,TGI,DU-145 prostate,4.25 µM
same,GI50,NCI/ADR-RES ovarian,8.47 µM
same,TGI,NCI/ADR-RES ovarian,> 81.3 µM
CC(C)Oc1ccc(CNC2=NCCO2)c2ccccc12,TGI,SF-539 CNS,24 µM
same,TGI,UO-31 renal,18.2 µM
same,TGI,SN12C renal,32.2 µM
same,TGI,SK-OV-3 ovarian,30.9 µM
same,TGI,SNB-75 CNS,34.7 µM
same,TGI,UACC-62 melanoma,30.6 µM
same,TGI,NCI-H226 lung,33 µM
same,TGI,TK-10 renal,30.2 µM
same,TGI,HOP-62 NSCLC,30.8 µM
same,TGI,SF-268 CNS,45.7 µM
same,TGI,EKVX NSCLC,29.2 µM
same,TGI,IGROV1 ovarian,27.9 µM
same,TGI,SF-295 CNS,26.8 µM
same,TGI,ACHN renal,27.7 µM
same,TGI,MDA-MB-435,24.2 µM
same,TGI,HS 578T breast,32 µM
same,TGI,SW-620 colon,31.7 µM
same,TGI,SK-MEL-5 melanoma,26.3 µM
same,TGI,A498 renal,23 µM
same,TGI,T-47D breast,31.3 µM
same,TGI,RXF 393 renal,28.3 µM
same,TGI,HCT-116 colon,27 µM
same,TGI,MCF7 breast,29.6 µM
same,TGI,U251 CNS,32.1 µM
same,TGI,RPMI-8226 leukemia,28.3 µM
same,TGI,COLO 205 colon,36.8 µM
same,TGI,OVCAR-8 ovarian,31.9 µM
same,TGI,SK-MEL-28 melanoma,27.6 µM
same,TGI,DU-145 prostate,33.5 µM
same,TGI,A549 NSCLC,30.8 µM
same,TGI,NCI/ADR-RES ovarian,31.9 µM
same,TGI,CCRF-CEM leukemia,30.4 µM
same,TGI,UACC-257 melanoma,20 µM
same,TGI,786-0 renal,26.4 µM
same,TGI,K-562 leukemia,15.8 µM
same,TGI,SR leukemia,26.3 µM
same,TGI,KM12 colon,34 µM
same,TGI,MALME-3M melanoma,28 µM
same,TGI,OVCAR-4 ovarian,31.1 µM
same,TGI,NCI-H460 lung,26.7 µM
same,TGI,NCI-H23 lung,30.2 µM
same,TGI,OVCAR-5 ovarian,24.3 µM
same,TGI,HT29 colon,16.3 µM
same,TGI,HL-60(TB) leukemia,23.6 µM
same,TGI,M14 melanoma,24.4 µM
same,TGI,HCC-2998 colon,25.3 µM
same,TGI,SNB-19 CNS,23 µM
same,TGI,MDA-MB-231 breast,28.9 µM
same,TGI,HCT-15 colon,29.8 µM
same,TGI,MOLT-4 leukemia,19.8 µM
Cc1ccc(-c2cc3nc(C(Cl)Cl)nc(-c4cccnc4)n3n2)cc1,GI50,MCF7 breast,2.01 µM
same,TGI,MCF7 breast,> 100 µM
same,GI50,OVCAR-8 ovarian,1.48 µM
same,TGI,OVCAR-8 ovarian,> 100 µM
same,GI50,DU-145 prostate,0.548 µM
same,TGI,DU-145 prostate,3.79 µM
same,GI50,K-562 leukemia,2.01 µM
same,TGI,K-562 leukemia,> 100 µM
same,GI50,SR leukemia,0.495 µM
same,TGI,SR leukemia,> 100 µM
same,GI50,HT29 colon,0.652 µM
same,TGI,HT29 colon,> 100 µM
same,GI50,MOLT-4 leukemia,1.83 µM
same,TGI,MOLT-4 leukemia,> 100 µM
ICCC(c1ccccc1)(c1ccccc1)c1ccccc1,GI50,SF-539 CNS,3.61 µM
same,TGI,SF-539 CNS,16.1 µM
same,GI50,LOX IMVI melanoma,4.16 µM
same,TGI,LOX IMVI melanoma,19.2 µM
same,GI50,UO-31 renal,1.72 µM
same,TGI,UO-31 renal,9.87 µM
same,GI50,NCI-H522 lung,8.35 µM
same,TGI,NCI-H522 lung,22.7 µM
same,GI50,SN12C renal,12.2 µM
same,TGI,SN12C renal,27.2 µM
same,GI50,SK-OV-3 ovarian,14.7 µM
same,TGI,SK-OV-3 ovarian,27.8 µM
same,GI50,SNB-75 CNS,1.7 µM
same,TGI,SNB-75 CNS,13 µM
same,GI50,UACC-62 melanoma,2.46 µM
same,TGI,UACC-62 melanoma,5.74 µM
same,GI50,NCI-H226 lung,13.7 µM
same,TGI,NCI-H226 lung,27.3 µM
same,GI50,TK-10 renal,14 µM
same,TGI,TK-10 renal,30.7 µM
same,GI50,HOP-62 NSCLC,11.6 µM
same,TGI,HOP-62 NSCLC,24 µM
same,GI50,SF-268 CNS,4.4 µM
same,TGI,SF-268 CNS,16.8 µM
same,GI50,EKVX NSCLC,6.96 µM
same,TGI,EKVX NSCLC,23.2 µM
same,GI50,IGROV1 ovarian,4.17 µM
same,TGI,IGROV1 ovarian,16.6 µM
same,GI50,SF-295 CNS,2.02 µM
same,TGI,SF-295 CNS,5.07 µM
same,GI50,ACHN renal,12 µM
same,TGI,ACHN renal,24.8 µM
same,GI50,MDA-MB-435,2.14 µM
same,TGI,MDA-MB-435,6.72 µM
same,GI50,CAKI-1 renal,3.83 µM
same,TGI,CAKI-1 renal,17.1 µM
same,GI50,SK-MEL-5 melanoma,3.23 µM
same,TGI,SK-MEL-5 melanoma,11.2 µM
same,GI50,OVCAR-3 ovarian,3.85 µM
same,TGI,OVCAR-3 ovarian,15 µM
same,GI50,T-47D breast,14 µM
same,TGI,T-47D breast,34.1 µM
same,GI50,RXF 393 renal,8.9 µM
same,TGI,RXF 393 renal,22.8 µM
same,GI50,HCT-116 colon,2.55 µM
same,TGI,HCT-116 colon,13.5 µM
same,GI50,MCF7 breast,10.6 µM
same,TGI,MCF7 breast,26.7 µM
same,GI50,U251 CNS,3.48 µM
same,TGI,U251 CNS,11.3 µM
same,GI50,RPMI-8226 leukemia,3.72 µM
same,TGI,RPMI-8226 leukemia,17.1 µM
same,GI50,COLO 205 colon,2.02 µM
same,TGI,COLO 205 colon,3.85 µM
same,GI50,OVCAR-8 ovarian,11.4 µM
same,TGI,OVCAR-8 ovarian,25.5 µM
same,GI50,SK-MEL-28 melanoma,3.4 µM
same,TGI,SK-MEL-28 melanoma,12.5 µM
same,GI50,PC-3 prostate,4.32 µM
same,TGI,PC-3 prostate,19.4 µM
same,GI50,DU-145 prostate,10.1 µM
same,TGI,DU-145 prostate,21.6 µM
same,GI50,A549 NSCLC,5.92 µM
same,TGI,A549 NSCLC,19.6 µM
same,GI50,NCI/ADR-RES ovarian,11.1 µM
same,TGI,NCI/ADR-RES ovarian,29.5 µM
same,GI50,CCRF-CEM leukemia,3.56 µM
same,TGI,CCRF-CEM leukemia,16.3 µM
same,GI50,UACC-257 melanoma,1.7 µM
same,TGI,UACC-257 melanoma,3.35 µM
same,GI50,786-0 renal,3.75 µM
same,TGI,786-0 renal,14.1 µM
same,GI50,K-562 leukemia,1.67 µM
same,TGI,K-562 leukemia,4.93 µM
same,GI50,SR leukemia,1.93 µM
same,TGI,SR leukemia,5 µM
same,GI50,KM12 colon,4.45 µM
same,TGI,KM12 colon,15.4 µM
same,GI50,MALME-3M melanoma,1.9 µM
same,TGI,MALME-3M melanoma,3.6 µM
same,GI50,HOP-92 NSCLC,2.7 µM
same,TGI,HOP-92 NSCLC,18.2 µM
same,GI50,OVCAR-4 ovarian,11.6 µM
same,TGI,OVCAR-4 ovarian,30.8 µM
same,GI50,NCI-H23 lung,13.4 µM
same,TGI,NCI-H23 lung,31 µM
same,GI50,OVCAR-5 ovarian,13.4 µM
same,TGI,OVCAR-5 ovarian,27.1 µM
same,GI50,SK-MEL-2 melanoma,4.18 µM
same,TGI,SK-MEL-2 melanoma,13.7 µM
same,GI50,HT29 colon,2.34 µM
same,TGI,HT29 colon,9.07 µM
same,GI50,HL-60(TB) leukemia,1.72 µM
same,TGI,HL-60(TB) leukemia,3.88 µM
same,GI50,M14 melanoma,1.92 µM
same,TGI,M14 melanoma,3.72 µM
same,GI50,HCC-2998 colon,8.41 µM
same,TGI,HCC-2998 colon,27.6 µM
same,GI50,SNB-19 CNS,14.4 µM
same,TGI,SNB-19 CNS,31.1 µM
same,GI50,MDA-MB-231 breast,4.41 µM
same,TGI,MDA-MB-231 breast,19.8 µM
same,GI50,HCT-15 colon,3.56 µM
same,TGI,HCT-15 colon,15.5 µM
same,GI50,MOLT-4 leukemia,2.57 µM
same,TGI,MOLT-4 leukemia,8.97 µM
